Molecular target: Human MGAT-2 (Homo sapiens (Human), UniProt Q3SYC2)
Experiment: MGAT LCMS Assay
Format: biochemical
Conditions: recombinant MGAT-2 membranes expressed in Sf9 cells; 100 μM 2-oleoylglycerol, 15 μM oleoyl-Coenzyme A; LC/MS of diolein; read-out: h-MGAT LCMS IC50
Method: Assay plates were run through a fully automated robotics system and shaken for 5 seconds every minute for a total 10 minutes. The reactions were then quenched with 120 μL of ice cold methanol containing 1 μg/mL 1,2-distearoyl-rac-glycerol as the internal standard. Plates were shaken for 2 minutes and spun down to remove protein precipitation. After the spin, samples were transferred to LC/MS compatible PCR plates. For LC/MS analysis, a ThermoFisher Surveyor pump, utilizing a Waters Symmetry C8, 50×2.1 mm column, was used for the chromatography of enzyme products. The buffer system consists of 0.1% formic acid in water with a mobile phase consisting 0.1% formic acid in methanol. The shallow gradient is 90-100% mobile phase in 0.2 min with a total run time of 2.3 min. The first 0.5 minutes of each injection was diverted to waste to eliminate the presence of Phosphate buffer in the enzymatic reaction. The column was run at 0.6 mL/min and a temperature of 65° C. Mass spectrometry analysis of the samples was performed on a ThermoFisher Quantum Triple quad utilizing APCI (+) as the mode of ionization. […] The ratio of Diolein to internal standard (Peak Area Ratio) is utilized to calculate IC50 values.

Human MGAT-2, sequence (Q3SYC2 whole entry): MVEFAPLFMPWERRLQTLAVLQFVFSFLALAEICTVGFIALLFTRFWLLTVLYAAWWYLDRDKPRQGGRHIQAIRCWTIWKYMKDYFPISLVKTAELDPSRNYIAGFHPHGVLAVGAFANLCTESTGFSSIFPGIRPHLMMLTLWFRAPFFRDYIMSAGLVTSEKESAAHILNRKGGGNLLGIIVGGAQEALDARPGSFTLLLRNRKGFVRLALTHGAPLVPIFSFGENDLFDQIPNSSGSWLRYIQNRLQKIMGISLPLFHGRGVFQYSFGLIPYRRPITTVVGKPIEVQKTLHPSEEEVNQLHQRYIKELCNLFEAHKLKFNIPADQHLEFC

Compound	IC50 [nM]
CCS(=O)(=O)NC(=O)C1=C(c2ccc(C)cc2)C[C@](c2ccc(OCCCCCC(F)(F)F)cc2)(C(F)(F)F)NC1=O [Example 1, (S)—N-(Ethylsulfonyl)-2-oxo-4-(p-tolyl)-6-(4-((6,6,6-trifluorohexyl)oxy)phenyl)-6-(trifluoromethyl)-1,2,5,6-tetrahydropyridine-3-carboxamide]	17
O=C1N[C@@](c2ccc(CCCCC(F)(F)F)cc2)(C(F)(F)F)CC(c2ccn(CC3CC3)n2)=C1C(=O)NS(=O)(=O)C1CC1 [Example 73]	2
O=C1N[C@@](c2ccc(OCCCCCC(F)(F)F)cc2)(C(F)(F)F)CC(c2ccc(OC(F)F)cc2)=C1C(=O)NS(=O)(=O)C1CC1 [Example 37]	6
Cc1ccc(C2=C(C(=O)NS(=O)(=O)C3CC3)C(=O)N[C@@](c3ccc(OCCCCCC(F)(F)F)cc3F)(C(F)(F)F)C2)cc1 [Example 6]	4
O=C1N[C@@](c2cnn(CCCCCCC(F)(F)F)c2)(C(F)(F)F)CC(c2ccc3c(c2)CCCC3)=C1C(=O)NS(=O)(=O)C1CC1 [Example 94]	4
Cc1ccc(C2=C(C(=O)NS(=O)(=O)C3CC3)C(=O)N[C@@](c3ncc(CCCCCCC(F)(F)F)s3)(C(F)(F)F)C2)cc1 [Example 3]	9
COc1ccc(C2=C(C(=O)NS(=O)(=O)C3CC3)C(=O)N[C@@](c3ccc(OCCCCCC(F)(F)F)cc3)(C(F)(F)F)C2)cc1 [Example 38]	43
CS(=O)(=O)NC(=O)C1=C(c2ccc(C3CC3)s2)C[C@](c2ccc(OCCCC(F)(F)F)cc2F)(C(F)(F)F)NC1=O [Example 65]	4
Cc1ccc(C2=C(C(=O)NS(C)(=O)=O)C(=O)N[C@@](c3ccc(OCCCC(F)(F)F)cc3)(C(F)(F)F)C2)cc1 [Example 13]	6
Cc1ccc(C2=C(C(=O)NS(=O)(=O)C(F)(F)F)C(=O)N[C@@](c3ccc(OCCCC(F)(F)F)cc3)(C(F)(F)F)C2)cc1 [Example 30]	5
O=C1N[C@@](c2cnn(CCCCCC(F)(F)F)c2)(C(F)(F)F)CC(c2ccc(C3CC3)s2)=C1C(=O)NS(=O)(=O)C1CC1 [Example 59]	4
CS(=O)(=O)NC(=O)C1=C(c2ccc(OC(F)F)cc2)C[C@](c2ccc(OCCCCCC(F)(F)F)cc2)(C(F)(F)F)NC1=O [Example 5]	38
CS(=O)(=O)NC(=O)C1=C(c2ccn(C3CC3)n2)C[C@](c2ccc(OCCCCCC(F)(F)F)cc2F)(C(F)(F)F)NC1=O [Example 86]	166
CS(=O)(=O)NC(=O)C1=C(c2ccn(C3CC3)n2)C[C@](c2ccc(OCCCCCC(F)(F)F)cc2)(C(F)(F)F)NC1=O [Example 83]	6
CC(C)(C)c1ccc(C2=C(C(=O)NS(C)(=O)=O)C(=O)N[C@@](c3ccc(OCCCCCC(F)(F)F)cc3)(C(F)(F)F)C2)cc1 [Example 21]	7
CCCCCCC#C[C@]1(C(F)(F)F)CC(c2ccc(C)cc2)=C(C(=O)NS(=O)(=O)C2CC2)C(=O)N1 [Example 2]	20
CCc1ccc(C2=C(C(=O)NS(=O)(=O)C3CC3)C(=O)N[C@](C)(c3ccc(OCCCC(F)(F)F)cc3)C2)cc1 [Example 82]	2
O=C1N[C@@](c2cnn(CCCCCC(F)(F)F)c2)(C(F)(F)F)CC(c2ccc3c(c2)CCCC3)=C1C(=O)NS(=O)(=O)C1CC1 [Example 58]	13
O=C1N[C@@](c2ccc(OCCCCCC(F)(F)F)cc2)(C(F)(F)F)CC(c2ccc(CC3CC3)cc2)=C1C(=O)NS(=O)(=O)C1CC1 [Example 23]	4
CS(=O)(=O)NC(=O)C1=C(c2ccc(OC(F)F)cc2)C[C@](c2ccc(OCCCC(F)(F)F)cc2)(C(F)(F)F)NC1=O [Example 14]	54
Cc1ccc(C2=C(C(=O)NS(=O)(=O)C3CC3)C(=O)N[C@@](C3CCCCC3)(C(F)(F)F)C2)cc1 [Example 98]	22
CS(=O)(=O)NC(=O)C1=C(c2ccc(C(F)F)cc2)C[C@](c2ccc(OCCCC(F)(F)F)cc2F)(C(F)(F)F)NC1=O [Example 71]	12
CN(C)S(=O)(=O)NC(=O)C1=C(c2ccc(OC(F)F)cc2)C[C@](c2ccc(OCCCCCC(F)(F)F)cc2)(C(F)(F)F)NC1=O [Example 39]	23
O=C1N[C@@](c2ccc(OCCCC(F)(F)F)cc2)(C(F)(F)F)CC(c2ccn(C3CCC3)n2)=C1C(=O)NS(=O)(=O)C1CC1 [Example 77]	29
COc1ccc(C2=C(C(=O)NS(C)(=O)=O)C(=O)N[C@@](c3ccc(OCCCC(F)(F)F)cc3)(C(F)(F)F)C2)cc1 [Example 34]	295
COc1ccc(C2=C(C(=O)NS(=O)(=O)C3CC3)C(=O)N[C@@](c3ccc(OCCCCCC(F)(F)F)cc3F)(C(F)(F)F)C2)cc1 [Example 22]	3
CCOc1ccc(C2=C(C(=O)NS(=O)(=O)C3CC3)C(=O)N[C@@](c3ccc(OCCCC(F)(F)F)cc3F)(C(F)(F)F)C2)cc1 [Example 96]	7

Compound	IC50 [nM]
CS(=O)(=O)NC(=O)C1=C(c2ccc(C(F)F)cc2)C[C@](c2ccc(OCCCCCC(F)(F)F)cc2F)(C(F)(F)F)NC1=O [Example 67]	1
O=C1N[C@@](c2ccc(OCCCC(F)(F)F)cc2F)(C(F)(F)F)CC(c2ncc(C3CC3)s2)=C1C(=O)NS(=O)(=O)C1CC1 [Example 70]	2
CCc1ccc(C2=C(C(=O)NS(=O)(=O)C3CC3)C(=O)N[C@@](c3ccc(OCCCCCC(F)(F)F)cc3)(C(F)(F)F)C2)s1 [Example 10]	5
CC(C)n1ccc(C2=C(C(=O)NS(=O)(=O)C3CC3)C(=O)N[C@@](c3ccc(CCCCC(F)(F)F)cc3F)(C(F)(F)F)C2)c1 [Example 51]	3
CC(C)n1ccc(C2=C(C(=O)NS(=O)(=O)C3CC3)C(=O)N[C@@](c3ccc(CCCCC(F)(F)F)cc3)(C(F)(F)F)C2)n1 [Example 75]	23
CCCCCCCc1cnc([C@@]2(C(F)(F)F)CC(c3ccc(C)cc3)=C(C(=O)NS(=O)(=O)C3CC3)C(=O)N2)s1 [Example 41]	235
Cc1ccc(C2=C(C(=O)NS(=O)(=O)C3CC3)C(=O)N[C@@](c3ccc(OCCCC(F)(F)F)cc3)(C(F)(F)F)C2)cc1 [Example 16]	18
Cc1ccc(C2=C(C(=O)NS(=O)(=O)C3CC3)C(=O)N[C@@](C#CCCCCCC(F)(F)F)(C(F)(F)F)C2)cc1 [Example 33]	11
Cc1ccc(C2=C(C(=O)NS(C)(=O)=O)C(=O)N[C@@](c3ccc(OCc4ccccc4)cc3)(C(F)(F)F)C2)cc1 [Example 17]	26
CC(C)n1ccc(C2=C(C(=O)NS(=O)(=O)C3CC3)C(=O)N[C@@](c3ccc(OCCCC(F)(F)F)cc3F)(C(F)(F)F)C2)n1 [Example 42]	8
Cc1ccc(C2=C(C(=O)NS(=O)(=O)C3CC3)C(=O)N[C@@](c3ccc(OCCCCCC(F)(F)F)cc3)(C(F)(F)F)C2)cc1 [Example 11]	12
O=C1N[C@@](c2ccc(OCCCC(F)(F)F)cc2F)(C(F)(F)F)CC(c2ccn(C3CC3)n2)=C1C(=O)NS(=O)(=O)C1CC1 [Example 46]	81
O=C1N[C@@](c2ccc(OCCCC(F)(F)F)cc2)(C(F)(F)F)CC(c2ccc(C3CC3)s2)=C1C(=O)NS(=O)(=O)C1CC1 [Example 63]	5
O=C1N[C@@](c2ccc(OCCCCCC(F)(F)F)cc2)(C(F)(F)F)CC(c2ccn(C3CC3)n2)=C1C(=O)NS(=O)(=O)C1CC1 [Example 78]	25
O=C1N[C@@](c2ccc(OCCCCCC(F)(F)F)cc2F)(C(F)(F)F)CC(c2ccn(C3CC3)n2)=C1C(=O)NS(=O)(=O)C1CC1 [Example 89]	6
CC(C)n1ccc(C2=C(C(=O)NS(=O)(=O)C3CC3)C(=O)N[C@@](c3ccc(OCCCCCC(F)(F)F)cc3)(C(F)(F)F)C2)c1 [Example 72]	4
Cc1ccc(C2=C(C(=O)NS(N)(=O)=O)C(=O)N[C@@](c3ccc(OCCCC(F)(F)F)cc3)(C(F)(F)F)C2)cc1 [Example 61]	45
Cc1ccc(C2=C(C(=O)NS(=O)(=O)C(C)(C)C)C(=O)N[C@@](c3ccc(OCCCC(F)(F)F)cc3)(C(F)(F)F)C2)cc1 [Example 28]	348
Cc1ccc(C2=C(C(=O)NS(=O)(=O)N(C)C)C(=O)N[C@@](c3ccc(OCCCCCC(F)(F)F)cc3)(C(F)(F)F)C2)cc1 [Example 32]	25
CCn1ccc(C2=C(C(=O)NS(=O)(=O)C3CC3)C(=O)N[C@@](c3ccc(OCCCC(F)(F)F)cc3F)(C(F)(F)F)C2)n1 [Example 48]	47
CS(=O)(=O)NC(=O)C1=C(c2ccn(C3CC3)n2)C[C@](c2ccc(OCCCC(F)(F)F)cc2F)(C(F)(F)F)NC1=O [Example 47]	16
CCc1ccc(C2=C(C(=O)NS(C)(=O)=O)C(=O)N[C@@](c3ccc(OCCCC(F)(F)F)cc3)(C(F)(F)F)C2)s1 [Example 7]	12
O=C1N[C@@](c2ccc(OCCCC(F)(F)F)cc2)(C(F)(F)F)CC(c2ccn(CC3CCC3)n2)=C1C(=O)NS(=O)(=O)C1CC1 [Example 74]	17
CC(C)Cn1ccc(C2=C(C(=O)NS(=O)(=O)C3CC3)C(=O)N[C@@](c3ccc(CCCCC(F)(F)F)cc3F)(C(F)(F)F)C2)n1 [Example 54]	59
CC(C)Cn1ccc(C2=C(C(=O)NS(=O)(=O)C3CC3)C(=O)N[C@@](c3ccc(OCCCCCC(F)(F)F)cc3)(C(F)(F)F)C2)n1 [Example 81]	43
CC(C)(C)c1ccc(C2=C(C(=O)NS(C)(=O)=O)C(=O)N[C@@](c3ccc(OCCCC(F)(F)F)cc3)(C(F)(F)F)C2)cc1 [Example 26]	19

Reference: patent publication US9365558B2 (BRISTOL-MYERS SQUIBB COMPANY, priority 2013, dated 2016)
